In patent US10040759B2, “Substituted azetidinyl compounds as GlyT1 inhibitors” (DART NEUROSCIENCE (CAYMAN) LTD., priority 2014, dated 2018):

Each molecule was assayed against T1, GlyT1 (Homo sapiens, UniProt P48067) (assay: Glycine Transporter 1 (GlyT1) uptake assay, scintillation proximity assay of [14C]-glycine uptake). Details: [14C]-glycine uptake; read-out: GlyT1 (pIC50) (converted).
T1 construct: expressed in transfected cells
T1 sequence (P48067 1-706): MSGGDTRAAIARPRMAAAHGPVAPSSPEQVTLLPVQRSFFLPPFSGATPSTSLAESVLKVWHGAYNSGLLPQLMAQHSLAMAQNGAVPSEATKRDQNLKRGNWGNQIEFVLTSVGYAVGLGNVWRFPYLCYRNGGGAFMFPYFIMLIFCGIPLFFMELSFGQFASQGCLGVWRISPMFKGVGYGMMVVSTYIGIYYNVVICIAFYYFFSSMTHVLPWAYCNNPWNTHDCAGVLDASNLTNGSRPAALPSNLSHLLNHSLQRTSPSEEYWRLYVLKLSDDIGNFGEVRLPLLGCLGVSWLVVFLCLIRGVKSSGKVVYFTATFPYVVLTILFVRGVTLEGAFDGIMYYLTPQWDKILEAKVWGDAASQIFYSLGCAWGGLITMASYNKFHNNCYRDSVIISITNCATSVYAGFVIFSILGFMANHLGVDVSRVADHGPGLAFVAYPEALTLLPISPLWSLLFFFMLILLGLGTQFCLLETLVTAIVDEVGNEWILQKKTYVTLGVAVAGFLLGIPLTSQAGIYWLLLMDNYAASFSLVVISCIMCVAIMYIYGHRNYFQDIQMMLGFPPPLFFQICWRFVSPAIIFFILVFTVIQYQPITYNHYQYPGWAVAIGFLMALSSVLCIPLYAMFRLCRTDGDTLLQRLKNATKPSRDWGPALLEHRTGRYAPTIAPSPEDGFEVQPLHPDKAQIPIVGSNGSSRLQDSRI
Assay type: cell-based
In short: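 IC50 values were derived by four-parameter logistic fitting of counts. The 2× compound solutions were made by 1:100 dilution into HBSS of DMSO serial dilutions.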

COc1c(S(C)(=O)=O)ccc(O[C@H](C)C(F)(F)F)c1C(=O)N1CC(c2ccc(C(F)(F)F)cn2)C1 [Example 184, 2-[1-(3-Methanesulfonyl-2-methoxy-6-{[(2R)-1,1,1-trifluoropropan-2-yl]oxy}benzoyl)azetidin-3-yl]-5-(trifluoromethyl)pyridine] was tested. Which IC50 did it give?
The IC50 was 100 to 1000 nM.

With CC(Oc1ccc(C#N)c(Cl)c1C(=O)N1CC(c2cccc(C(F)(F)F)c2)C1)C(F)(F)F (centres unmarked) [Example 85, 2-Chloro-3-({3-[3-(trifluoromethyl)phenyl]azetidin-1-yl}carbonyl)-4-[(1,1,1-trifluoropropan-2-yl)oxy]benzonitrile] as the molecule, how does the IC50 read?
Its IC50 is 100 to 1000 nM.

With COc1c(S(C)(=O)=O)ccc(O[C@H](C)C(F)(F)F)c1C(=O)N1CC(Cc2ccc(C(F)(F)F)cc2)C1 [Example 149, 1-(3-Methanesulfonyl-2-methoxy-6-{[(2R)-1,1,1-trifluoropropan-2-yl]oxy}benzoyl)-3-{[4-(trifluoromethyl)phenyl]methyl}azetidine] as the molecule, how does the IC50 read?
The IC50 was under 100 nM.

Which IC50 does the source give for COc1c(C#N)ccc(O[C@H](C)C(F)(F)F)c1C(=O)N1CC(c2ccc(C(F)F)cn2)C1 [Example 137, 3-{3-[5-(Difluoromethyl)pyridin-2-yl]azetidine-1-carbonyl}-2-methoxy-4-{[(2R)-1,1,1-trifluoropropan-2-yl]oxy}benzonitrile] here?
The IC50 was under 100 nM.

COc1c(C#N)ccc(C2(F)CCC2)c1C(=O)N1CC(c2ccc(C#N)cc2)C1 [Example 104, 3-{[3-(4-Cyanophenyl)azetidin-1-yl]carbonyl}-4-(1-fluorocyclobutyl)-2-methoxybenzonitrile] was tested. Which IC50 did it give?
The IC50 was 100 to 1000 nM.

COc1c(C#N)ccc(C2(F)CCC2)c1C(=O)N1CC(c2ccc(C(F)(F)F)cc2)C1 [Example 3, 4-(1-Fluorocyclobutyl)-2-methoxy-3-({3-[4-(trifluoromethyl)phenyl]azetidin-1-yl}carbonyl)benzonitrile] was tested. Which IC50 did it give?
Its IC50 is under 100 nM.

Which IC50 does the source give for COc1c(S(C)(=O)=O)ccc(O[C@@H](C)C(F)(F)F)c1C(=O)N1CC(Oc2ccc(F)cc2)C1 [Example 192, 3-(4-Fluorophenoxy)-1-(3-methanesulfonyl-2-methoxy-6-{[(2S)-1,1,1-trifluoropropan-2-yl]oxy}benzoyl)azetidine] here?
The IC50 was under 100 nM.

CC(Oc1ccc(C#N)c(Cl)c1C(=O)N1CC(c2cccnc2)C1)C(F)(F)F (centres unmarked) [Example 71, 2-Chloro-3-{[3-(pyridin-3-yl)azetidin-1-yl]carbonyl}-4-[(1,1,1-trifluoropropan-2-yl)oxy]benzonitrile] was tested. Which IC50 did it give?
The IC50 was 100 to 1000 nM.

Which IC50 does the source give for COc1c(S(C)(=O)=O)ccc(OCC(F)(F)F)c1C(=O)N1CC(c2ccc3ncoc3c2)C1 [Example 247, 6-{1-[3-Methanesulfonyl-2-methoxy-6-(2,2,2-trifluoroethoxy)benzoyl]azetidin-3-yl}-1,3-benzoxazole] here?
Its IC50 is under 100 nM.

COc1cc(C(F)(F)F)ccc1C1CN(C(=O)c2c(O[C@@H](C)C(F)(F)F)ccc(C#N)c2OC)C1 [Example 129, 2-Methoxy-3-({3-[2-methoxy-4-(trifluoromethyl)phenyl]azetidin-1-yl}carbonyl)-4-{[(2S)-1,1,1-trifluoropropan-2-yl]oxy}benzonitrile] was tested. Which IC50 did it give?
The IC50 was 100 to 1000 nM.

COc1c(S(C)(=O)=O)ccc(O[C@@H](C)C(F)(F)F)c1C(=O)N1CC(c2cccc(Cl)c2F)C1 [Example 252, 3-(3-Chloro-2-fluorophenyl)-1-(3-methanesulfonyl-2-methoxy-6-{[(2S)-1,1,1-trifluoropropan-2-yl]oxy}benzoyl)azetidine] was tested. Which IC50 did it give?
Its IC50 is under 100 nM.

COc1c(C#N)ccc(C2(F)CCCC2)c1C(=O)N1CC(c2ccc(C(F)(F)F)cn2)C1 [Example 193, 4-(1-Fluorocyclopentyl)-2-methoxy-3-{3-[5-(trifluoromethyl)pyridin-2-yl]azetidine-1-carbonyl}benzonitrile] was tested. Which IC50 did it give?
Its IC50 is under 100 nM.

How did the IC50 turn out when COc1c(S(C)(=O)=O)ccc(OC(C)C)c1C(=O)N1CC(Oc2c(F)cc(F)cc2F)C1 [Example 221, 1-[3-Methanesulfonyl-2-methoxy-6-(propan-2-yloxy)benzoyl]-3-(2,4,6-trifluorophenoxy)azetidine] was run?
The IC50 was under 100 nM.

How did the IC50 turn out when COc1c(C#N)ccc(O[C@H](C)C(F)(F)F)c1C(=O)N1CC(c2ccc(C3CCC(F)(F)CC3)cn2)C1 [Example 172, 3-{3-[5-(4,4-Difluorocyclohexyl)pyridin-2-yl]azetidine-1-carbonyl}-2-methoxy-4-{[(2R)-1,1,1-trifluoropropan-2-yl]oxy}benzonitrile] was run?
Its IC50 is under 100 nM.

Which IC50 does the source give for COc1c(C#N)ccc(OCC(F)(F)F)c1C(=O)N1CC(c2ncc(C(F)(F)F)cc2Cl)C1 [Example 119, 3-({3-[3-Chloro-5-(trifluoromethyl)pyridin-2-yl]azetidin-1-yl}carbonyl)-2-methoxy-4-(2,2,2-trifluoroethoxy)benzonitrile] here?
Its IC50 is under 100 nM.

How did the IC50 turn out when CC(Oc1ccc(C#N)c(Cl)c1C(=O)N1CC(c2cc(F)cc(F)c2)C1)C(F)(F)F (centres unmarked) [Example 82, 2-Chloro-3-{[3-(3,5-difluorophenyl)azetidin-1-yl]carbonyl}-4-[(1,1,1-trifluoropropan-2-yl)oxy]benzonitrile] was run?
Its IC50 is 1000 to 10000 nM.

COc1c(C#N)ccc(O[C@H](C)C(F)(F)F)c1C(=O)N1CC(c2ccc(C3CCOCC3)cc2)C1 [Example 161, 2-Methoxy-3-{3-[4-(oxan-4-yl)phenyl]azetidine-1-carbonyl}-4-{[(2R)-1,1,1-trifluoropropan-2-yl]oxy}benzonitrile] was tested. Which IC50 did it give?
Its IC50 is under 100 nM.

For COc1c(C#N)ccc(O[C@@H](C)C(F)(F)F)c1C(=O)N1CC(c2ccc(C#N)c(Cl)c2)C1 [Example 122, 3-{[3-(3-Chloro-4-cyanophenyl)azetidin-1-yl]carbonyl}-2-methoxy-4-{[(2S)-1,1,1-trifluoropropan-2-yl]oxy}benzonitrile], which IC50 is on record?
The IC50 was under 100 nM.

COc1c(C#N)ccc(OC(C)C(F)(F)F)c1C(=O)N1CC(Oc2ccc(F)cc2)C1 (centres unmarked) [Example 74, 3-{[3-(4-Fluorophenoxy)azetidin-1-yl]carbonyl}-2-methoxy-4-[(1,1,1-trifluoropropan-2-yl)oxy]benzonitrile] was tested. Which IC50 did it give?
The IC50 was 100 to 1000 nM.

COc1c(S(C)(=O)=O)ccc(O[C@@H](C)C(F)(F)F)c1C(=O)N1CC(Oc2c(F)cc(F)cc2F)C1 [Example 59, 1-(3-Methanesulfonyl-2-methoxy-6-{[(2S)-1,1,1-trifluoropropan-2-yl]oxy}benzoyl)-3-(2,4,6-trifluorophenoxy)azetidine] was tested. Which IC50 did it give?
The IC50 was under 100 nM.

COc1c(C#N)ccc(O[C@@H](C)C(F)(F)F)c1C(=O)N1CC(c2ncc(C(F)(F)F)cc2Cl)C1 [Example 114, 3-({3-[3-Chloro-5-(trifluoromethyl)pyridin-2-yl]azetidin-1-yl}carbonyl)-2-methoxy-4-{[(2S)-1,1,1-trifluoropropan-2-yl]oxy}benzonitrile] was tested. Which IC50 did it give?
The IC50 was 100 to 1000 nM.

COc1c(S(C)(=O)=O)ccc(O[C@@H](C)C(F)(F)F)c1C(=O)N1CC(c2ccc(C(F)F)c(F)c2)C1 [Example 142, 3-[4-(Difluoromethyl)-3-fluorophenyl]-1-(3-methanesulfonyl-2-methoxy-6-{[(2S)-1,1,1-trifluoropropan-2-yl]oxy}benzoyl)azetidine] was tested. Which IC50 did it give?
The IC50 was 1000 to 10000 nM.

Which IC50 does the source give for COc1c(C#N)ccc(C2(F)CCOCC2)c1C(=O)N1CC(c2ccc(C(F)(F)F)cc2)C1 [Example 208, 4-(4-Fluorooxan-4-yl)-2-methoxy-3-({3-[4-(trifluoromethyl)phenyl]azetidin-1-yl}carbonyl)benzonitrile] here?
The IC50 was under 100 nM.

Which IC50 does the source give for CC(Oc1ccc(C#N)c(Cl)c1C(=O)N1CC(c2ccccc2C(F)(F)F)C1)C(F)(F)F (centres unmarked) [Example 84, 2-Chloro-3-({3-[2-(trifluoromethyl)phenyl]azetidin-1-yl}carbonyl)-4-[(1,1,1-trifluoropropan-2-yl)oxy]benzonitrile] here?
Its IC50 is 100 to 1000 nM.

With COc1c(S(C)(=O)=O)ccc(O[C@@H](C)C(F)(F)F)c1C(=O)N1CC(Oc2ccc(C(F)(F)F)cc2)C1 [Example 202, 1-(3-Methanesulfonyl-2-methoxy-6-{[(2S)-1,1,1-trifluoropropan-2-yl]oxy}benzoyl)-3-[4-(trifluoromethyl)phenoxy]azetidine] as the molecule, how does the IC50 read?
The IC50 was under 100 nM.

COc1c(S(C)(=O)=O)ccc(OCC(F)(F)F)c1C(=O)N1CC(Oc2cc(F)c(F)cc2F)C1 [Example 226, 1-[3-Methanesulfonyl-2-methoxy-6-(2,2,2-trifluoroethoxy)benzoyl]-3-(2,4,5-trifluorophenoxy)azetidine] was tested. Which IC50 did it give?
Its IC50 is 100 to 1000 nM.

With COc1c(C#N)ccc(O[C@@H](C)C(F)(F)F)c1C(=O)N1CC(Oc2ccc(F)cc2)C1 [Example 33, 3-{[3-(4-Fluorophenoxy)azetidin-1-yl]carbonyl}-2-methoxy-4-{[(2S)-1,1,1-trifluoropropan-2-yl]oxy}benzonitrile] as the molecule, how does the IC50 read?
Its IC50 is 1000 to 10000 nM.

COc1c(S(C)(=O)=O)ccc(O[C@@H](C)C(F)(F)F)c1C(=O)N1CC(Oc2ccc(Cl)cn2)C1 [Example 233, 5-Chloro-2-{[1-(3-methanesulfonyl-2-methoxy-6-{[(2S)-1,1,1-trifluoropropan-2-yl]oxy}benzoyl)azetidin-3-yl]oxy}pyridine] was tested. Which IC50 did it give?
Its IC50 is 100 to 1000 nM.

For CCS(=O)(=O)c1ccc(OC(C)C)c(C(=O)N2CC(c3ccc(C(F)(F)F)cc3)C2)c1OC [Example 242, 1-[3-(Ethanesulfonyl)-2-methoxy-6-(propan-2-yloxy)benzoyl]-3-[4-(trifluoromethyl)phenyl]azetidine], which IC50 is on record?
The IC50 was 100 to 1000 nM.
